From PubChem BioAssay (NCI)
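Following 48 hours of exposure in 96-well plates, responses at five concentrations were used to interpolate endpoints linearly. GI50 = concentration required for 50% inhibition of growth. TGI: total growth inhibition.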

Columns and labels:
Test in all cases: DTP human tumour cell line panel, 48 h
OVCAR-8 ovarian = test system: OVCAR-8 ovarian
IGROV1 ovarian = test system: IGROV1 ovarian
HOP-92 NSCLC = test system: HOP-92 NSCLC
ACHN renal = test system: ACHN renal
A549 NSCLC = test system: A549 NSCLC
NCI-H460 lung = test system: NCI-H460 lung
CCRF-CEM leukemia = test system: CCRF-CEM leukemia
UACC-257 melanoma = test system: UACC-257 melanoma
SK-OV-3 ovarian = test system: SK-OV-3 ovarian
CAKI-1 renal = test system: CAKI-1 renal
M14 melanoma = test system: M14 melanoma
U251 CNS = test system: U251 CNS
A498 renal = test system: A498 renal
SN12C renal = test system: SN12C renal
LXFL 529 NSCLC = test system: LXFL 529 NSCLC
MOLT-4 leukemia = test system: MOLT-4 leukemia
NCI-H23 lung = test system: NCI-H23 lung
HCC-2998 colon = test system: HCC-2998 colon
MALME-3M melanoma = test system: MALME-3M melanoma
M19-MEL melanoma = test system: M19-MEL melanoma
TK-10 renal = test system: TK-10 renal
OVCAR-3 ovarian = test system: OVCAR-3 ovarian
KM12 colon = test system: KM12 colon
RXF-631 renal = test system: RXF-631 renal
HOP-62 NSCLC = test system: HOP-62 NSCLC
786-0 renal = test system: 786-0 renal
DMS 273 small cell lung = test system: DMS 273 small cell lung
HOP-18 NSCLC = test system: HOP-18 NSCLC
SK-MEL-5 melanoma = test system: SK-MEL-5 melanoma
SK-MEL-2 melanoma = test system: SK-MEL-2 melanoma
UO-31 renal = test system: UO-31 renal
SK-MEL-28 melanoma = test system: SK-MEL-28 melanoma
NCI-H522 lung = test system: NCI-H522 lung
HCT-15 colon = test system: HCT-15 colon
RXF 393 renal = test system: RXF 393 renal
OVCAR-5 ovarian = test system: OVCAR-5 ovarian
SF-295 CNS = test system: SF-295 CNS
HT29 colon = test system: HT29 colon
HL-60(TB) leukemia = test system: HL-60(TB) leukemia
DLD-1 colon = test system: DLD-1 colon
SF-539 CNS = test system: SF-539 CNS
NCI-H226 lung = test system: NCI-H226 lung
UACC-62 melanoma = test system: UACC-62 melanoma
SF-268 CNS = test system: SF-268 CNS
EKVX NSCLC = test system: EKVX NSCLC
COLO 205 colon = test system: COLO 205 colon
SNB-75 CNS = test system: SNB-75 CNS
KM20L2 colon = test system: KM20L2 colon
RPMI-8226 leukemia = test system: RPMI-8226 leukemia
LOX IMVI melanoma = test system: LOX IMVI melanoma
OVCAR-4 ovarian = test system: OVCAR-4 ovarian
SR leukemia = test system: SR leukemia
HCT-116 colon = test system: HCT-116 colon
SNB-78 CNS = test system: SNB-78 CNS
SNB-19 CNS = test system: SNB-19 CNS
K-562 leukemia = test system: K-562 leukemia
XF 498 CNS = test system: XF 498 CNS
DMS 114 small cell lung = test system: DMS 114 small cell lung
SW-620 colon = test system: SW-620 colon
MDA-MB-435 = test system: MDA-MB-435
PC-3 prostate = test system: PC-3 prostate
DU-145 prostate = test system: DU-145 prostate
NCI/ADR-RES ovarian = test system: NCI/ADR-RES ovarian
BT-549 breast = test system: BT-549 breast
MCF7 breast = test system: MCF7 breast
T-47D breast = test system: T-47D breast
MDA-N = test system: MDA-N
MDA-MB-231 breast = test system: MDA-MB-231 breast
HS 578T breast = test system: HS 578T breast

CCN(CC)CCCC(C)Nc1c2cc(OC)cc(C)c2nc2c(C)c(Cl)ccc12 (centres undefined)
TGI (OVCAR-8 ovarian): 3.19 µM
TGI (IGROV1 ovarian): 3.09 µM
TGI (HOP-92 NSCLC): 3.22 µM
TGI (ACHN renal): 3.09 µM
TGI (A549 NSCLC): 3.31 µM
TGI (NCI-H460 lung): 3.32 µM
TGI (CCRF-CEM leukemia): 3.25 µM
TGI (UACC-257 melanoma): 3.31 µM
TGI (SK-OV-3 ovarian): 3.06 µM
TGI (CAKI-1 renal): 4.81 µM
TGI (M14 melanoma): 3.68 µM
TGI (U251 CNS): 3.26 µM
TGI (A498 renal): 6.3 µM
TGI (SN12C renal): 2.93 µM
TGI (LXFL 529 NSCLC): 2.98 µM
TGI (MOLT-4 leukemia): 3.26 µM
TGI (NCI-H23 lung): 2.82 µM
TGI (HCC-2998 colon): 3.03 µM
TGI (MALME-3M melanoma): 3.52 µM
TGI (M19-MEL melanoma): 3.13 µM
TGI (TK-10 renal): 3.19 µM
TGI (OVCAR-3 ovarian): 3.27 µM
TGI (KM12 colon): 2.99 µM
TGI (RXF-631 renal): 3.23 µM
TGI (HOP-62 NSCLC): 3.08 µM
TGI (786-0 renal): 3.02 µM
TGI (DMS 273 small cell lung): 3.14 µM
TGI (HOP-18 NSCLC): 2.91 µM
TGI (SK-MEL-5 melanoma): 3.28 µM
TGI (SK-MEL-2 melanoma): 3.44 µM
TGI (UO-31 renal): 3.1 µM
TGI (SK-MEL-28 melanoma): 3.39 µM
TGI (NCI-H522 lung): 3.06 µM
TGI (HCT-15 colon): 3.2 µM
TGI (RXF 393 renal): 3.54 µM
TGI (OVCAR-5 ovarian): 3.92 µM
TGI (SF-295 CNS): 3.71 µM
TGI (HT29 colon): 3.03 µM
TGI (HL-60(TB) leukemia): 4.26 µM
TGI (DLD-1 colon): 2.93 µM

COc1cc(OC)cc(-c2cc(=O)c3cc4c(cc3[nH]2)OCO4)c1
TGI (SF-539 CNS): 0.498 µM
TGI (OVCAR-8 ovarian): 9.55 µM
TGI (NCI-H226 lung): 1.06 µM
TGI (IGROV1 ovarian): 18.2 µM
TGI (HOP-92 NSCLC): 21.1 µM
TGI (UACC-62 melanoma): > 53.3 µM
TGI (SF-268 CNS): 38.6 µM
TGI (EKVX NSCLC): > 100 µM
TGI (ACHN renal): > 35.5 µM
TGI (A549 NSCLC): 45.1 µM
TGI (NCI-H460 lung): 3.33 µM
TGI (COLO 205 colon): 0.471 µM
TGI (CCRF-CEM leukemia): 4.56 µM
TGI (UACC-257 melanoma): > 100 µM
TGI (SNB-75 CNS): 43.7 µM
TGI (KM20L2 colon): 0.652 µM
TGI (SK-OV-3 ovarian): 4.49 µM
TGI (CAKI-1 renal): > 100 µM
TGI (M14 melanoma): > 48.1 µM
TGI (U251 CNS): > 31.9 µM
TGI (SN12C renal): 30 µM
TGI (LXFL 529 NSCLC): 20.6 µM
TGI (MOLT-4 leukemia): > 51 µM
TGI (NCI-H23 lung): 9.09 µM
TGI (HCC-2998 colon): 0.787 µM
TGI (RPMI-8226 leukemia): > 58.8 µM
TGI (MALME-3M melanoma): > 100 µM
TGI (LOX IMVI melanoma): > 51.1 µM
TGI (M19-MEL melanoma): > 100 µM
TGI (OVCAR-4 ovarian): > 96.1 µM
TGI (TK-10 renal): 55 µM
TGI (SR leukemia): 9.54 µM
TGI (HCT-116 colon): 5.5 µM
TGI (SNB-78 CNS): > 89.2 µM
TGI (SNB-19 CNS): 72.5 µM
TGI (OVCAR-3 ovarian): 5.82 µM
TGI (HOP-62 NSCLC): 17.9 µM
TGI (786-0 renal): 33 µM
TGI (DMS 273 small cell lung): 3.31 µM
TGI (HOP-18 NSCLC): > 75.6 µM
TGI (SK-MEL-5 melanoma): 8.23 µM
TGI (SK-MEL-2 melanoma): 4.46 µM
TGI (K-562 leukemia): > 50.2 µM
TGI (UO-31 renal): > 88.9 µM
TGI (SK-MEL-28 melanoma): > 71.7 µM
TGI (NCI-H522 lung): 0.593 µM
TGI (XF 498 CNS): 2.58 µM
TGI (HCT-15 colon): 22.8 µM
TGI (DMS 114 small cell lung): 0.726 µM
GI50 (RXF 393 renal): 0.219 µM
TGI (RXF 393 renal): 0.518 µM
TGI (SW-620 colon): > 100 µM
TGI (OVCAR-5 ovarian): > 63.1 µM
TGI (SF-295 CNS): 1.74 µM
TGI (HT29 colon): > 100 µM
TGI (HL-60(TB) leukemia): 0.714 µM
TGI (DLD-1 colon): 36.4 µM

CC(C)=CCCC(C)CCOS(=O)C(F)(F)F (centres undefined)
TGI (SF-539 CNS): > 100 µM
TGI (OVCAR-8 ovarian): > 100 µM
TGI (NCI-H226 lung): 41.4 µM
TGI (IGROV1 ovarian): 74.6 µM
TGI (HOP-92 NSCLC): > 100 µM
TGI (UACC-62 melanoma): 21.7 µM
TGI (SF-268 CNS): 44.7 µM
TGI (EKVX NSCLC): 30.2 µM
TGI (ACHN renal): 34.4 µM
TGI (A549 NSCLC): 72.1 µM
TGI (NCI-H460 lung): 46.3 µM
TGI (COLO 205 colon): 20.2 µM
TGI (CCRF-CEM leukemia): > 100 µM
TGI (UACC-257 melanoma): 52.9 µM
TGI (MDA-MB-435): 37.1 µM
TGI (SNB-75 CNS): 67.7 µM
TGI (SK-OV-3 ovarian): > 100 µM
TGI (CAKI-1 renal): > 100 µM
TGI (M14 melanoma): 6.59 µM
TGI (U251 CNS): 22.9 µM
TGI (A498 renal): 63.7 µM
TGI (SN12C renal): 41.7 µM
TGI (MOLT-4 leukemia): 24.2 µM
TGI (NCI-H23 lung): 14 µM
TGI (PC-3 prostate): 45.3 µM
TGI (DU-145 prostate): > 100 µM
TGI (HCC-2998 colon): 27.5 µM
TGI (RPMI-8226 leukemia): 90.8 µM
TGI (MALME-3M melanoma): 18.9 µM
TGI (LOX IMVI melanoma): 37.2 µM
TGI (OVCAR-4 ovarian): 20.5 µM
TGI (NCI/ADR-RES ovarian): 30.4 µM
TGI (TK-10 renal): > 100 µM
TGI (SR leukemia): 10.3 µM
TGI (HCT-116 colon): 30.3 µM
TGI (BT-549 breast): 77.8 µM
TGI (SNB-19 CNS): 78 µM
TGI (OVCAR-3 ovarian): 27.8 µM
TGI (KM12 colon): > 100 µM
TGI (HOP-62 NSCLC): > 100 µM
TGI (786-0 renal): > 100 µM
TGI (MCF7 breast): > 100 µM
TGI (SK-MEL-5 melanoma): 33.1 µM
TGI (SK-MEL-2 melanoma): 36.5 µM
TGI (T-47D breast): > 100 µM
TGI (K-562 leukemia): > 100 µM
TGI (UO-31 renal): 35.2 µM
TGI (SK-MEL-28 melanoma): 34.6 µM
TGI (NCI-H522 lung): 5.12 µM
TGI (HCT-15 colon): 11.5 µM
TGI (MDA-N): 14 µM
TGI (RXF 393 renal): 7.57 µM
TGI (SW-620 colon): > 100 µM
TGI (MDA-MB-231 breast): 61.4 µM
TGI (OVCAR-5 ovarian): 47.8 µM
TGI (SF-295 CNS): 86.8 µM
TGI (HT29 colon): 28.5 µM
TGI (HL-60(TB) leukemia): 9.14 µM
TGI (HS 578T breast): 5.31 µM

CCN(CC)CSc1nc2ccccc2[nH]1
TGI (OVCAR-8 ovarian): > 100 µM
TGI (NCI-H226 lung): > 100 µM
TGI (IGROV1 ovarian): > 100 µM
TGI (HOP-92 NSCLC): > 100 µM
TGI (EKVX NSCLC): > 100 µM
TGI (ACHN renal): > 100 µM
TGI (A549 NSCLC): > 100 µM
TGI (NCI-H460 lung): > 100 µM
TGI (CCRF-CEM leukemia): > 100 µM
TGI (UACC-257 melanoma): > 100 µM
TGI (SK-OV-3 ovarian): > 100 µM
TGI (M14 melanoma): > 100 µM
TGI (U251 CNS): > 100 µM
TGI (A498 renal): > 100 µM
TGI (MOLT-4 leukemia): > 100 µM
TGI (NCI-H23 lung): > 100 µM
TGI (TK-10 renal): > 100 µM
TGI (SR leukemia): > 100 µM
TGI (HCT-116 colon): > 100 µM
TGI (SNB-78 CNS): > 100 µM
TGI (SNB-19 CNS): > 100 µM
TGI (KM12 colon): > 100 µM
TGI (HOP-62 NSCLC): > 100 µM
TGI (DMS 273 small cell lung): > 100 µM
TGI (UO-31 renal): > 100 µM
TGI (SK-MEL-28 melanoma): > 100 µM
TGI (NCI-H522 lung): > 100 µM
TGI (DMS 114 small cell lung): > 100 µM
TGI (RXF 393 renal): > 100 µM
TGI (OVCAR-5 ovarian): > 100 µM
TGI (SF-295 CNS): > 100 µM
TGI (HT29 colon): > 100 µM
TGI (HL-60(TB) leukemia): > 100 µM
